7 compounds from ChEMBL document CHEMBL3243998, “Conformation of 2,9-dimethyl-3'-hydroxy-5-phenyl-6,7-genzomorphan and its relation to other analgetics and enkephalin” (J Med Chem, 1978) can be followed below.

In one assay the test system is Mus musculus. Nature of the assay: Analgesic activity in sc dosed mouse assessed as inhibition of phenylquinone-induced writhing. In kind it is functional. Also noted: log(1/ED50): unit not given here.
In another assay the target is Opioid receptor (Rattus norvegicus, UniProt P33533+P34975+P33535). The assay is described as follows: Displacement of [3H]naloxone from Sprague-Dawley rat cerebellum opioid receptor assessed as relative receptor affinity by scintillation counting. In kind it is protein assay.
Where [1] appears, read: Mus musculus, sc, read-out: ED50.

`CN1CC[C@]23CCCC[C@H]2[C@H]1Cc1ccc(O)cc13.O.O=C(O)C(O)C(O)C(=O)O`: the ED50 with Mus musculus (setting [1]) worked out at 0.24 mg/kg.

Regarding `C[C@H]1[C@H]2Cc3ccc(O)cc3[C@]1(c1ccccc1)CCN2C.Cl`, on Opioid receptor, the IC50 was found to be 19 nM. Also, the “log(1/ED50)” value in the assay with Mus musculus is 2.82. Moreover, in the assay with Mus musculus (setting [1]), the ED50 was 0.5 mg/kg.

On to `C[C@@H]1[C@@H]2Cc3ccc(O)cc3[C@@]1(c1ccccc1)CCN2C.Cl`, for which the IC50 on Opioid receptor is 10000 nM. In addition, in the assay with Mus musculus, the “log(1/ED50)” value is reported as 1.9. Moreover, the ED50 with Mus musculus (setting [1]) is 4.2 mg/kg.

For the compound `C[C@H]1[C@H]2Cc3ccc(O)cc3[C@]1(c1ccccc1)CC[N+]2(C)C.[I-]`, the IC50 at Opioid receptor was 320 nM.

On to `CN1CCC2(c3ccccc3)CC1Cc1ccccc12.O=C(O)C(O)C(O)C(=O)O` (single isomer, unassigned; form 1), for which the IC50 at Opioid receptor worked out at 600 nM. In addition, the “log(1/ED50)” value with Mus musculus was 1.88. Moreover, in the assay on Mus musculus (setting [1]), the median effective dose (ED50) was determined as 5.5 mg/kg.

With `CN1CCC2(c3ccccc3)CC1Cc1ccccc12.O=C(O)C(O)C(O)C(=O)O` (single isomer, unassigned; form 2), the IC50 at Opioid receptor was 3000 nM. Further, in the assay with Mus musculus, the ED50 was determined as 8 mg/kg and the “log(1/ED50)” value came out at 1.71.

Take `CCOC(=O)C1(c2ccccc2)CCN(C)CC1.Cl` [MEPERIDINE HYDROCHLORIDE]: the “log(1/ED50)” value with Mus musculus stood at 1.61. Further, the ED50 in the assay with Mus musculus (setting [1]) was found to be 7 mg/kg.
